Data from PMC3183052, “Immunoprotectivity of HLA-A2 CTL Peptides Derived from Respiratory Syncytial Virus Fusion Protein in HLA-A2 Transgenic Mouse” (PLoS ONE, 2011).

How the values were obtained:
[1] = biological target: T1, HLA-A*0201 (Homo sapiens, UniProt P04439, D140Y/D185E/D98H/E176V/E277Q/G131W/G231S/I119V/I121R/I166T/I218V/L300P/L318F/N151K/N90K/P208A/P217A/Q86G/Q94H/R138H/R169H/T345S); experiment: T2 cell-stabilization assay (T2-binding); details: for T2-binding Ratio of MFI: T2 cells 5×10^5, peptide 50 µg/mL + β2-microglobulin 5 µg/mL, 28°C 16–18 h, then brefeldin A 10 µg/mL 37°C 3 h, FITC anti-HLA-A2, flow cytometry, MFI relative to negative control HCV C55-74 (set as 1); for binding affinity, MFI higher than the baseline: T2 cell-based binding assay, baseline = negative control HCV C55-74, called modest binding affinity
T1 construct: Human T2 cells (purchased from the American Type Culture Collection, ATCC) (ATCC No. CRL-1992) expressing the HLA-A*0201 gene; endogenous in cells; host or cells: human T2 cells (ATCC CRL-1992)
Protocol: T2 cells (5×10^5) cultured in 96-well U-bottom plates were incubated with the individual 9-mer synthetic peptides (50 µg/mL) and β2-microglobulin (5 µg/mL; Sigma-Aldrich) at 28°C for 16–18 hours. Subsequently, brefeldin A (10 µg/mL) was added and the cells were incubated at 37°C for another 3 hours, then washed and stained with fluorescence isothiocyanate (FITC)-conjugated mouse anti-human HLA-A2 antibody (SeroTec). Peptide-loaded T2 cells were acquired and analyzed on the FACScan flow cytometer using CellQuest software (Becton Dickinson). GLC-9 peptide was used as positive control (PC). The mean fluorescence intensity (MFI) represents the binding affinity of each peptide compared to MFI (set as MFI = 1) obtained from negative control (NC), which is T2 cells loaded with HCV peptide C55-74.
Twenty-five 9-mer synthetic peptides derived from the RSV F glycoprotein sequence presumed to encompass HLA-A*0201 binding motifs were synthesized (Table 1). Each was tested for its ability to bind HLA-A*0201 molecules by T2 cell-based binding assay (data not shown). The relative mean fluorescence intensity (MFI) obtained from the positive control (PC) peptide derived from Epstein-Barr virus capsid protein (GLC-9, a previously defined HLA-A*0201-restricted CTL epitope) was twofold (MFI = 1.96) compared to the baseline MFI = 1 obtained from the negative control (NC) treated with an unrelated peptide HCV C55-74 (a C57BL/6-specific CD4 epitope). […] The remaining peptides had no detectable binding to the HLA-A*0201 molecules. Apparently, the different MFIs generated by binding of RSV F-derived peptides to HLA-A*0201 reflects on the binding specificity of different peptides to a given HLA molecule.

[2] = test system: splenocytes from HLA-A*0201 transgenic C57BL/6 mice; experiment: IFN-γ ELISPOT of splenocytes restimulated with peptide; type: cell-based, mouse; details: for IFN-γ ELISPOT, RSV: splenocytes of HLA-Tg B6 mice primed and boosted i.n. with 10^4 pfu RSV-B1; for IFN-γ ELISPOT, RSV / IFN-γ ELISPOT, rAd-F0: restimulated with 2 µg peptide, representative of two experiments, five mice per group; for IFN-γ ELISPOT, rAd-F0: splenocytes of HLA-Tg B6 mice primed and boosted i.n. with 10^7 pfu rAd-F0; for IFN-γ level in restimulated splenocytes (ELISPOT, text grading): splenocytes of rAd-F0- or RSV B1-primed and boosted HLA-Tg B6 mice, high = over 100 spots, moderate = over 50 spots
Protocol: (§1) To screen the immunodominance of epitopic peptide in the induction of RSV-F specific Th1/Th2 expression, HLA-A*0201 transgenic C57BL/6 mice were anesthetized with isoflurane and immunized with 1×10^7 pfu/50 µL of rAd-F0 or rAd-LacZ or 1×10^4 live RSV B1 via the intranasal (i.n.) route. Twenty days later, the mice were given booster immunization i.n. with the same dose. After 10 days of boost, mice were sacrificed and splenocytes were isolated for the cytokine ELISPOT assay. For peptide-based vaccination, transgenic mice were immunized subcutaneously (s.c.) with 50 µg of the individual synthetic peptides emulsified in 25 µL of incomplete Freund's adjuvant (IFA) (Sigma-Aldrich) and then boosted after 10 days s.c. with the same dose of the respective peptides mixed with IFA. Mice were sacrificed 7 days after the booster and splenocytes were isolated for in vitro peptide-restimulation. For challenge studies, 10^7 pfu of live RSV-B1 was administered i.n. seven days after the booster immunization with peptide vaccines. Mice were sacrificed on day 4 post-challenge and the lung tissues were collected and subjected to further analysis by flow cytometry, ELISA, CTL assay and immunohistochemistry. Mice body weight was monitored daily.
(§2) […] RBC-free splenocyte suspensions prepared from the individual mice were seeded in individual wells of 96-well filtration plates (Millipore) precoated with capturing monoclonal antibodies for murine IL-2, IL-4 or IFN-γ (0.5 µg/ well) (eBioscience) and blocked with conditioned medium (CM) for 1 hour at room temperature. The splenocytes were added with the individual RSV F 9-mer synthetic peptides (2 µg each) or GLC-9 dissolved in CM (100 µL). The splenocytes added with Con A (10 µg/mL) were used as positive control. Unstimulated splenocytes were used as negative control. The plates were kept in a 37°C incubator equilibrated with 5% CO2 for 48 hours. The individual wells of the ELISPOT plates were washed three times with washing buffer (0.05% tween20 in PBS, PBS-T), and then 0.2 µg of the corresponding biotinylated detection monoclonal antibodies specific for IL-2, IL-4 and IFN-γ were added to detect the respective cytokines. After 2 hours of incubation at room temperature, the plates were washed and 100 µl of streptavidin-alkaline phosphatase (1∶ 250 dilution) was added to the individual wells, and the plates were incubated at room temperature for 45 minutes. Finally, the plates were washed four times with the wash buffer, and 100 µl of AEC (3-amine-9-ethylcarbazole, Sigma-Aldrich) substrate was added to each well and allowed to react for 30 minutes at room temperature in the dark. The plates were then washed with water, air-dried overnight, and the spots per well were scored using the immunospot counting reader (C.T.L. IMMUNOSPOT, CELLULAR TECHNOLOGY LTD). Results were expressed as the number of cytokine-secreting cells per 5×10^5 splenocytes seeded in the initial culture.
(§3) Figure 1 Induction of IFN-γ and IL-2 in splenocytes from RSV F peptide immunized HLA-A*0201 transgenic mice upon secondary recall. Splenocytes harvested on day 30 from HLA-A-Tg B6 mice primed and boosted at 20 days interval intranasally with 10^7 pfu of rAd-F0 (□) or 10^4 pfu of RSV-B1 (▪)were restimulated with 2 µg of the individual RSV F peptide or 10 µg/ml Con A for 5 days in the presence of murine IL-2 . After stimulation, 5×10^5 splenocytes were seeded to anti-IFN-γ (A) or anti-IL-2 (B) capture antibody coated ELISPOT plates for 2 days for ELISPOT assay as described in Materials and Methods. Cytokine-positive immunospots were developed and the results are expressed as the number of immunospots +/−2 standard deviations for each experimental group. Data is representative of results derived from two independent experiments, each with five mice per group.

[3] = test system: splenocytes from HLA-A*0201 transgenic C57BL/6 mice; experiment: IL-2 ELISPOT of splenocytes restimulated with peptide; type: cell-based, mouse; details: for IL-2 ELISPOT, RSV: splenocytes of HLA-Tg B6 mice primed and boosted i.n. with 10^4 pfu RSV-B1; for IL-2 ELISPOT, RSV / IL-2 ELISPOT, rAd-F0: restimulated with 2 µg peptide, representative of two experiments, five mice per group; for IL-2 ELISPOT, rAd-F0: splenocytes of HLA-Tg B6 mice primed and boosted i.n. with 10^7 pfu rAd-F0; for IL-2 level in restimulated splenocytes (ELISPOT, text grading): splenocytes of rAd-F0- or RSV B1-primed and boosted HLA-Tg B6 mice, high = over 100 spots, moderate = over 50 spots
Protocol: as §1, §2, §3

## 15: HLA-A*0201-restricted 9-mer synthetic peptide from F protein of RSV-B1 strain (KLMSNNVQI) [compound 15]
[1]
  T2-binding Ratio of MFI: 1.51
[2]
  IFN-γ ELISPOT, RSV: 0 cytokine-secreting cells per 5×10^5 splenocytes
  IFN-γ ELISPOT, rAd-F0: 39 cytokine-secreting cells per 5×10^5 splenocytes
[3]
  IL-2 ELISPOT, RSV: 59.5 cytokine-secreting cells per 5×10^5 splenocytes
  IL-2 ELISPOT, rAd-F0: 37 cytokine-secreting cells per 5×10^5 splenocytes
  IL-2 level in restimulated splenocytes (ELISPOT, text grading): over 50 spots

## 16: HLA-A*0201-restricted 9-mer synthetic peptide from F protein of RSV-B1 strain (LMSNNVQIV) [compound 16]
[1]
  T2-binding Ratio of MFI: 1.60
[2]
  IFN-γ ELISPOT, RSV: 28 cytokine-secreting cells per 5×10^5 splenocytes
  IFN-γ ELISPOT, rAd-F0: 54 cytokine-secreting cells per 5×10^5 splenocytes
  IFN-γ level in restimulated splenocytes (ELISPOT, text grading): over 50 spots
[3]
  IL-2 ELISPOT, RSV: 50.5 cytokine-secreting cells per 5×10^5 splenocytes
  IL-2 ELISPOT, rAd-F0: 52 cytokine-secreting cells per 5×10^5 splenocytes
  IL-2 level in restimulated splenocytes (ELISPOT, text grading): over 50 spots

## 18: HLA-A*0201-restricted 9-mer synthetic peptide from F protein of RSV-B1 strain (SVGNTLYYV) [compound 18]
[1]
  binding affinity, MFI higher than the baseline: ~10%
  T2-binding Ratio of MFI: 1.29
[2]
  IFN-γ ELISPOT, RSV: 92.5 cytokine-secreting cells per 5×10^5 splenocytes
  IFN-γ ELISPOT, rAd-F0: 115 cytokine-secreting cells per 5×10^5 splenocytes
  IFN-γ level in restimulated splenocytes (ELISPOT, text grading): over 100 spots
[3]
  IL-2 ELISPOT, RSV: 42 cytokine-secreting cells per 5×10^5 splenocytes
  IL-2 ELISPOT, rAd-F0: 0 cytokine-secreting cells per 5×10^5 splenocytes

## 19: HLA-A*0201-restricted 9-mer synthetic peptide from F protein of RSV-B1 strain (KINQSLAFI) [compound 19]
[1]
  T2-binding Ratio of MFI: 1.08
[2]
  IFN-γ ELISPOT, RSV: 7.5 cytokine-secreting cells per 5×10^5 splenocytes
  IFN-γ ELISPOT, rAd-F0: 200 cytokine-secreting cells per 5×10^5 splenocytes
  IFN-γ level in restimulated splenocytes (ELISPOT, text grading): over 100 spots
[3]
  IL-2 ELISPOT, RSV: 36.5 cytokine-secreting cells per 5×10^5 splenocytes
  IL-2 ELISPOT, rAd-F0: 52 cytokine-secreting cells per 5×10^5 splenocytes
  IL-2 level in restimulated splenocytes (ELISPOT, text grading): over 50 spots

## 20: HLA-A*0201-restricted 9-mer synthetic peptide from F protein of RSV-B1 strain (IMITTIIIV) [compound 20]
[1]
  T2-binding Ratio of MFI: 1.03
[2]
  IFN-γ ELISPOT, RSV: 9 cytokine-secreting cells per 5×10^5 splenocytes
  IFN-γ ELISPOT, rAd-F0: 200 cytokine-secreting cells per 5×10^5 splenocytes
  IFN-γ level in restimulated splenocytes (ELISPOT, text grading): over 100 spots
[3]
  IL-2 ELISPOT, RSV: 24.5 cytokine-secreting cells per 5×10^5 splenocytes
  IL-2 ELISPOT, rAd-F0: 32 cytokine-secreting cells per 5×10^5 splenocytes

## 21: HLA-A*0201-restricted 9-mer synthetic peptide from F protein of RSV-B1 strain (IIIVIIVIL) [compound 21]
[1]
  T2-binding Ratio of MFI: 0.88
[2]
  IFN-γ ELISPOT, RSV: 80 cytokine-secreting cells per 5×10^5 splenocytes
  IFN-γ ELISPOT, rAd-F0: 16.5 cytokine-secreting cells per 5×10^5 splenocytes
  IFN-γ level in restimulated splenocytes (ELISPOT, text grading): over 50 spots
[3]
  IL-2 ELISPOT, RSV: 21 cytokine-secreting cells per 5×10^5 splenocytes
  IL-2 ELISPOT, rAd-F0: 2.5 cytokine-secreting cells per 5×10^5 splenocytes

## 22: HLA-A*0201-restricted 9-mer synthetic peptide from F protein of RSV-B1 strain (VIIVILLSL) [compound 22]
[1]
  T2-binding Ratio of MFI: 0.97
[2]
  IFN-γ ELISPOT, RSV: 49 cytokine-secreting cells per 5×10^5 splenocytes
  IFN-γ ELISPOT, rAd-F0: 88.5 cytokine-secreting cells per 5×10^5 splenocytes
  IFN-γ level in restimulated splenocytes (ELISPOT, text grading): over 50 spots
[3]
  IL-2 ELISPOT, RSV: 55 cytokine-secreting cells per 5×10^5 splenocytes
  IL-2 ELISPOT, rAd-F0: 21.5 cytokine-secreting cells per 5×10^5 splenocytes
  IL-2 level in restimulated splenocytes (ELISPOT, text grading): over 50 spots

## 24: HLA-A*0201-restricted 9-mer synthetic peptide from F protein of RSV-B1 strain (LLSLIAVGL) [compound 24]
[1]
  T2-binding Ratio of MFI: 1.71
[2]
  IFN-γ ELISPOT, RSV: 0 cytokine-secreting cells per 5×10^5 splenocytes
  IFN-γ ELISPOT, rAd-F0: 84.5 cytokine-secreting cells per 5×10^5 splenocytes
  IFN-γ level in restimulated splenocytes (ELISPOT, text grading): over 50 spots
[3]
  IL-2 ELISPOT, RSV: 42 cytokine-secreting cells per 5×10^5 splenocytes
  IL-2 ELISPOT, rAd-F0: 5 cytokine-secreting cells per 5×10^5 splenocytes

## 25: HLA-A*0201-restricted 9-mer synthetic peptide from F protein of RSV-B1 strain (SLIAVGLLL) [compound 25]
[1]
  binding affinity, MFI higher than the baseline: ~10%
  T2-binding Ratio of MFI: 1.42
[2]
  IFN-γ ELISPOT, RSV: 96 cytokine-secreting cells per 5×10^5 splenocytes
  IFN-γ ELISPOT, rAd-F0: 41 cytokine-secreting cells per 5×10^5 splenocytes
  IFN-γ level in restimulated splenocytes (ELISPOT, text grading): over 50 spots
[3]
  IL-2 ELISPOT, RSV: 44.5 cytokine-secreting cells per 5×10^5 splenocytes
  IL-2 ELISPOT, rAd-F0: 31 cytokine-secreting cells per 5×10^5 splenocytes
